Structures are written as SMILES.

Test [1] concerns the target B-cell CLL/lymphoma 6 member B protein (Homo sapiens, UniProt Q8N143). Briefly: SPR (BCL6B), Ontario institute for cancer research.
Test [2] concerns the target Sodium-dependent noradrenaline transporter (Homo sapiens) (UniProt P23975). The conditions noted are these: Compound concentration 10.0 uM.
Test [3] deals with T1, Muscarinic acetylcholine receptor M2 (Homo sapiens) (UniProt P08172).
T1 sequence (whole entry): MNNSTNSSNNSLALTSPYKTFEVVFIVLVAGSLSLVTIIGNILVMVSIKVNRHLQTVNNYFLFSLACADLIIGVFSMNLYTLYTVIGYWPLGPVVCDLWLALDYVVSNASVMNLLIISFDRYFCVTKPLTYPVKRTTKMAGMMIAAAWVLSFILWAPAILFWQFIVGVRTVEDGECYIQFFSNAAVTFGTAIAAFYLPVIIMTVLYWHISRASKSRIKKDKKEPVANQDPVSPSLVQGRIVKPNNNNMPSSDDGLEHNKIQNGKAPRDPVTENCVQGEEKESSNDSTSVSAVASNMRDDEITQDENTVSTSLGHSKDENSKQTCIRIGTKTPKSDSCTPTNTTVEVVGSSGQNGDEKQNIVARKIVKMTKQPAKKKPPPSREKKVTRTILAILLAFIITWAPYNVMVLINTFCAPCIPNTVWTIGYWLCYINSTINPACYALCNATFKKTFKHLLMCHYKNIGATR
The following applies: Compound concentration 10.0 uM.

For test [4], the target named is Histamine H4 receptor (Homo sapiens) (UniProt Q9H3N8). The following applies: Compound concentration 10.0 uM.
Test [5] has as its target 5-hydroxytryptamine receptor 1B (Homo sapiens) (UniProt P28222). The conditions noted are these: Compound concentration 10.0 uM.
Test [6] deals with GABA-A receptor; anion channel (Rattus norvegicus) (UniProt O09028+P15431+P18506+P18508+P19969+P20236+P23574+P23576+P28471+P28473+P30191+P62813+P63079+P63138+Q91ZM7+Q9ES14). The following applies: Compound concentration 10.0 uM.
Test [7] concerns the target Histamine H3 receptor (Homo sapiens) (UniProt Q9Y5N1). The following applies: Compound concentration 10.0 uM.
Test [8] addresses Dual specificity mitogen-activated protein kinase kinase 2 (Homo sapiens) (UniProt P36507). Briefly: MAP2K2 Invitrogen Lab (UK) kinase screen (BI). The conditions noted are these: Compound concentration 1.0 uM.
The target in test [9] is RAF proto-oncogene serine/threonine-protein kinase (Homo sapiens) (UniProt P04049). Kind of test: RAF1 Invitrogen Lab (UK) kinase screen (BI). The following applies: Compound concentration 1.0 uM.
Test [10] addresses 5-hydroxytryptamine receptor 7 (Homo sapiens) (UniProt P34969). The conditions noted are these: Compound concentration 10.0 uM.
Test [11] deals with Dual specificity mitogen-activated protein kinase kinase 1 (Homo sapiens) (UniProt Q02750). Briefly: MAP2K1 Invitrogen Lab (UK) kinase screen (BI). The following applies: Compound concentration 1.0 uM.
Test [12] has as its target Beta-3 adrenergic receptor (Homo sapiens) (UniProt P13945). The conditions noted are these: Compound concentration 10.0 uM.
Test [13] has as its target Tyrosine-protein kinase ITK/TSK (Homo sapiens) (UniProt Q08881). Briefly: ITK Invitrogen Lab (UK) kinase screen (BI). The conditions noted are these: Compound concentration 1.0 uM.
The target in test [14] is Dual specificity protein kinase CLK1 (Homo sapiens) (UniProt P49759). Briefly: CLK1 Invitrogen Lab (UK) kinase screen (BI). The following applies: Compound concentration 1.0 uM.
The target in test [15] is Proto-oncogene tyrosine-protein kinase receptor Ret (Homo sapiens) (UniProt P07949). Briefly: RET Invitrogen Lab (UK) kinase screen (BI). The following applies: Compound concentration 1.0 uM.
For test [16], the target named is Inhibitor of nuclear factor kappa-B kinase subunit beta (Homo sapiens) (UniProt O14920). Kind of test: IKBKB Invitrogen Lab (UK) kinase screen (BI). The conditions noted are these: Compound concentration 1.0 uM.
Test [17] concerns the target Serine/threonine-protein kinase 3 (Homo sapiens) (UniProt Q13188). Kind of test: STK3 Invitrogen Lab (UK) kinase screen (BI). The conditions noted are these: Compound concentration 1.0 uM.

Histamine H4 receptor (Homo sapiens), sequence (Q9H3N8 whole entry): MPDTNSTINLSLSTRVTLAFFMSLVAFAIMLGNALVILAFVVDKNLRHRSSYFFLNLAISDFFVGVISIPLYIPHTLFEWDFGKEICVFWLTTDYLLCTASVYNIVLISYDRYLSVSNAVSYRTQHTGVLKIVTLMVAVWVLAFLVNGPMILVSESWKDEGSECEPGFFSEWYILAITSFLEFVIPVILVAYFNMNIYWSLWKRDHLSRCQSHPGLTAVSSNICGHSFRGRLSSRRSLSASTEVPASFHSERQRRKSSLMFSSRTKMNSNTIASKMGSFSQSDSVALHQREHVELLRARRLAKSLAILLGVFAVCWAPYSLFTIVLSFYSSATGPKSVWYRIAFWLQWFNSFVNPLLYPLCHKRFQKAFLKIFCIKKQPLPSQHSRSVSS
Beta-3 adrenergic receptor (Homo sapiens), sequence (P13945 whole entry, looked up): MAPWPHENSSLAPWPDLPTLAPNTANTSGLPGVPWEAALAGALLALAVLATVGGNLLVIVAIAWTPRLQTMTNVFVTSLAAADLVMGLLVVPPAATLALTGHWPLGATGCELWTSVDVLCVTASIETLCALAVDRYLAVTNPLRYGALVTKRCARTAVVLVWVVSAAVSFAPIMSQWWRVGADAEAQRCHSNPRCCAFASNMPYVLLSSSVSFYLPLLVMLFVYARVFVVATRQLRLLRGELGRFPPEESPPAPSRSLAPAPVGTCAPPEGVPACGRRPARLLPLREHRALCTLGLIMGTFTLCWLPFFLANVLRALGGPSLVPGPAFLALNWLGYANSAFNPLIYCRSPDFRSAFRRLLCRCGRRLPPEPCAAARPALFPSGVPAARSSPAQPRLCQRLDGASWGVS
5-hydroxytryptamine receptor 7 (Homo sapiens), sequence (P34969 whole entry): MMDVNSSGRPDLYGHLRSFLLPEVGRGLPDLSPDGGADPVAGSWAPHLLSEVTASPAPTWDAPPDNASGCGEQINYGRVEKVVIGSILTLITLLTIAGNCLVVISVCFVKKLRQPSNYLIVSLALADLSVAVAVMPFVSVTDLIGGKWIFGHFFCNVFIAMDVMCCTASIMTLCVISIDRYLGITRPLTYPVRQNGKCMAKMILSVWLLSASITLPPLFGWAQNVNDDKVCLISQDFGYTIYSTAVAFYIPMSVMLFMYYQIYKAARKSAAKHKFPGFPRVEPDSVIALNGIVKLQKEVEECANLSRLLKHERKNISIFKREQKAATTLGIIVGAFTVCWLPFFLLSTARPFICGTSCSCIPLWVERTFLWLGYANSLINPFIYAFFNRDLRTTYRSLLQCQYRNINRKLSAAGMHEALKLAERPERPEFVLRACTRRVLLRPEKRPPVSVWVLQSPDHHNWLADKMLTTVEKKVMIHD
Sodium-dependent noradrenaline transporter (Homo sapiens), sequence (P23975 whole entry): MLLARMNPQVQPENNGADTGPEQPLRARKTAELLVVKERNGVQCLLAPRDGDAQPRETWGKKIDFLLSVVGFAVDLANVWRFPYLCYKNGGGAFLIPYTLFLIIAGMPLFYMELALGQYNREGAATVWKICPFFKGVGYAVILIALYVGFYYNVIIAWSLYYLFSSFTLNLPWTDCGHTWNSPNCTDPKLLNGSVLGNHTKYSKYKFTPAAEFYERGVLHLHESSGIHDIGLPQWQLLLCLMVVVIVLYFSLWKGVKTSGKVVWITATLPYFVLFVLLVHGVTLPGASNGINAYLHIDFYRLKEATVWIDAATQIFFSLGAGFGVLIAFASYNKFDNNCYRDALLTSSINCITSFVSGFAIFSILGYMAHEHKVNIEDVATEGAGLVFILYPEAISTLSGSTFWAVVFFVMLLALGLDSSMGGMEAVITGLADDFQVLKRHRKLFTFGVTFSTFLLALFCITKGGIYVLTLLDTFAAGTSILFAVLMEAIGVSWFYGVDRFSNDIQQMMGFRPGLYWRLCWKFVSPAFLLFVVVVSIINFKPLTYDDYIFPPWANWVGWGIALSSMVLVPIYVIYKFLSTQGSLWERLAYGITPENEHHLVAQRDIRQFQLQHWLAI
Histamine H3 receptor (Homo sapiens), sequence (Q9Y5N1 whole entry): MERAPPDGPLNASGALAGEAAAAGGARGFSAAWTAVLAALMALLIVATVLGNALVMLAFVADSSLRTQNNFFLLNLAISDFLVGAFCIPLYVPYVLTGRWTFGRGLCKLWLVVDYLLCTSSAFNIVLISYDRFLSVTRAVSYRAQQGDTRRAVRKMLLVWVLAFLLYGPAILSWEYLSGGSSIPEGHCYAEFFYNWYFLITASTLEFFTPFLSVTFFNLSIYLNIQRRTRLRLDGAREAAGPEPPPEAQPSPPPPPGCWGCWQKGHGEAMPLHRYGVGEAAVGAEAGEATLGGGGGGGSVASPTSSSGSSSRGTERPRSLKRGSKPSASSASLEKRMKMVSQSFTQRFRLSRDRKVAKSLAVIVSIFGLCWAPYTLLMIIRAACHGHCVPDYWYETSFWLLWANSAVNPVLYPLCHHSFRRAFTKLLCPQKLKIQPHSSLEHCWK
5-hydroxytryptamine receptor 1B (Homo sapiens), sequence (P28222 whole entry): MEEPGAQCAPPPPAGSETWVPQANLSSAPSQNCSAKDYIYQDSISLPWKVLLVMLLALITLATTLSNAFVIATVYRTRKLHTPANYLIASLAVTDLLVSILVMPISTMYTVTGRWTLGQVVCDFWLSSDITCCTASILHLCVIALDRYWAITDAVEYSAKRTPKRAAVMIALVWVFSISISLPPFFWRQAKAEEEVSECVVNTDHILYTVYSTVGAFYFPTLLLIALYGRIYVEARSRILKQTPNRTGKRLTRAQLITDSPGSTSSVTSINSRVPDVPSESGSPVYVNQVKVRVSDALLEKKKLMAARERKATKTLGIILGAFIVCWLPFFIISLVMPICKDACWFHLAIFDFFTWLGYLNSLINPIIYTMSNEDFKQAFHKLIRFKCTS
RAF proto-oncogene serine/threonine-protein kinase (Homo sapiens), sequence (P04049 whole entry): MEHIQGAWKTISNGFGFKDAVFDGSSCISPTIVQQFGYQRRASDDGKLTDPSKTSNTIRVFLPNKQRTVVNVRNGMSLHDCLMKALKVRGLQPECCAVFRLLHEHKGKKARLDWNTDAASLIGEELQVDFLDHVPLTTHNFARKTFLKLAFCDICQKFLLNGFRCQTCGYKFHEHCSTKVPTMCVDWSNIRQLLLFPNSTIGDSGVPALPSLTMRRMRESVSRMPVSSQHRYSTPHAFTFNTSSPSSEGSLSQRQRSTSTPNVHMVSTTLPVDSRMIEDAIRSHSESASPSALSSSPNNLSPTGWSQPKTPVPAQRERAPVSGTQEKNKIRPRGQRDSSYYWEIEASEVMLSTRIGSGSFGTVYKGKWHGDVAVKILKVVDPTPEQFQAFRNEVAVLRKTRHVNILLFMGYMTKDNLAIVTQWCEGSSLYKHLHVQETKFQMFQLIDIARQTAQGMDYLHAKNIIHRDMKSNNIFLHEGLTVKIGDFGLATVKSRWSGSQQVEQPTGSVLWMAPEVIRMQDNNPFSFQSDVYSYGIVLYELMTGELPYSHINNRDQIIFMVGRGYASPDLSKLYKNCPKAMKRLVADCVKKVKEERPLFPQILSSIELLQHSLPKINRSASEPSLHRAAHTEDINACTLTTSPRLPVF
Dual specificity protein kinase CLK1 (Homo sapiens), sequence (P49759 whole entry, looked up): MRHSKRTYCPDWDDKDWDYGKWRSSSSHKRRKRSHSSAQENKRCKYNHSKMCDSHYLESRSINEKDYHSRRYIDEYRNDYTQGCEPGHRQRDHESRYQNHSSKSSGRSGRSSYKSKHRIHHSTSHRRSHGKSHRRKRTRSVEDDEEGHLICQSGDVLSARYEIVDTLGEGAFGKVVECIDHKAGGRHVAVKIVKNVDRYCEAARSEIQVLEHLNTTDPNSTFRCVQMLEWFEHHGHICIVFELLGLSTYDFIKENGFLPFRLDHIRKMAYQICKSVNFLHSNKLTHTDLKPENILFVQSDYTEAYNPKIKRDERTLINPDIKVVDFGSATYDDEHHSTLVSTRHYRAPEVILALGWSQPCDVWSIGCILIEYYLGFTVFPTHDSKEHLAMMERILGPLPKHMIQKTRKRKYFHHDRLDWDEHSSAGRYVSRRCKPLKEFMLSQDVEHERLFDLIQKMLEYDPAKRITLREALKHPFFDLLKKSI
B-cell CLL/lymphoma 6 member B protein, sequence (Q8N143 whole entry): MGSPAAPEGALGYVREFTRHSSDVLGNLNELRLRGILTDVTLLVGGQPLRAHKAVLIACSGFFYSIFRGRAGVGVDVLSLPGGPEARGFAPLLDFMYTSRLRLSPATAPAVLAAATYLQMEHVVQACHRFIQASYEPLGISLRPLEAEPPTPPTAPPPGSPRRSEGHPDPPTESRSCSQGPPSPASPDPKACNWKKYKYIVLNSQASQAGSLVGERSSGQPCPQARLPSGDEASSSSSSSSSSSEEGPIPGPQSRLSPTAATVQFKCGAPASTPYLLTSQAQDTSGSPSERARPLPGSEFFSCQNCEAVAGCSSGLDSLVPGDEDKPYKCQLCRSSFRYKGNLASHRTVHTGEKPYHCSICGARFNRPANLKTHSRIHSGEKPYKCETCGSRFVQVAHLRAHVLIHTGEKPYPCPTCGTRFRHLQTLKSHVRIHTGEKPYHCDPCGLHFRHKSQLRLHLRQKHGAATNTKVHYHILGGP
Dual specificity mitogen-activated protein kinase kinase 1 (Homo sapiens), sequence (Q02750 whole entry): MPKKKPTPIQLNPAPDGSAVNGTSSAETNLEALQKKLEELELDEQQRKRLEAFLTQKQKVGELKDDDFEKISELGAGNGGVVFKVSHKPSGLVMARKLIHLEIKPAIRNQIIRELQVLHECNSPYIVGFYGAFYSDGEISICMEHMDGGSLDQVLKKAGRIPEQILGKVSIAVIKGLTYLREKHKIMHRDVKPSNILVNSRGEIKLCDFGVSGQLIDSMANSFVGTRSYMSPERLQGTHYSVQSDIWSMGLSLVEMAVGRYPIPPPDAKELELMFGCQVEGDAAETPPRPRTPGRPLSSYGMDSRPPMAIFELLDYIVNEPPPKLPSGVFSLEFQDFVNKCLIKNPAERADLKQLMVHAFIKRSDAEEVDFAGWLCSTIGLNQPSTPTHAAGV

In the case of `C[C@@H]1C[C@H](C)CN(c2ncc(Cl)c(Nc3ccc4c(c3)cc(OC(C)(C)C(=O)O)c(=O)n4C)n2)C1`, the Kd entry in [1] was “No binding”.

Regarding `CNC(=O)COc1cc2cc(Nc3nc(N4C[C@H](C)C[C@H](C)C4)ncc3Cl)ccc2n(C)c1=O`, the inhibition is 9.75% in test [2]; -5.1% in [3]; -0.56% in test [4]; 8.61% in test [5]; 20.9% in test [6]; 12.7% in [7]. Moreover, the inhibition in test [10] was 15.5%; in [12], -4.02%. Moreover, the residual activity in test [8] was 111%; in test [9], 94%; in test [11], 71%; in [13] it was 100%; in [14], 107%; in test [15] it was 101%. Besides, the residual activity was 102% in test [16] and 101% in test [17].

The record behind these values is ChEMBL document CHEMBL5303763, “Data for DCP probe BI-3802” (2023).
